The values below come from US12358847B2, “Liquid formulations of urease inhibitors for fertilizers” (Soilgenic Technologies, LLC, priority 2012, dated 2025).

Series [1] in a line: Dynamic viscosity of protic solvents with DMSO vs. NMP co-solvent (Brookfield viscometer). It is filed as physicochemical. The note with it: 21° C.; in propylene glycol, glycerin, MIPA. From the text: Dynamic viscosity measurements were collected for propylene glycol, glycerin, and a representative alkanolamine (monoisopropanolamine, MIPA) with increasing levels of DMSO and NMP. A Brookfield LVDV-E digital rotational viscometer with LVDV-E spindle set (Brookfield Engineering Labs, Inc., Middleboro, Mass.) was employed for this work and was calibrated using Cannon […] general purpose, synthetic base oil viscosity calibration standard solution (Cannon Instrument Company, State College, PA). The sampling was conducted at 21° C.

The conditions of series [2]: in vivo; cited from earlier work.
For series [3] the following is noted: Maximum Allowable Dosage Level per day (California Proposition 65); cited from earlier work.
The conditions of series [4]: in vivo; cited from earlier work. This is another data set of the same source.
The conditions of series [5]: 25° C.; cited from earlier work.
A short description of series [6]: Accelerated chemical stability of NBPT solutions at 50 °C, HPLC. The note with it: 45 days at 50±1° C.

As for `C[S+](C)[O-]` [Dimethyl sulfoxide, dimethyl sulfoxide], in series [1], the “reducing the viscosity of viscous formulations, DMSO vs. NMP” value was “virtually no difference”. Further, the “Oral LD-50” value in series [2] is on record as 14,500-28,300. In series [3], the “Inhalation toxicity (MADL)” value is reported as “None established”. Moreover, the “Dermal LD-50” value in series [4] is reported as 40,000.
Turning to `CC(O)CO` (stereo not shown) [propylene glycol], the dynamic viscosity in series [5] is 48.8 centipoise.
Take `CN1CCCC1=O` [N-methyl pyrrolidone, reference compound]: the “Oral LD-50” value in series [2] is 3,914. For the same compound, the “Inhalation toxicity (MADL)” value in series [3] was 3200 µg/day. Also, the “Dermal LD-50” value in series [4] is given as 8,000.
In the case of `CCCCNP(N)(N)=S` [NBPT, N-(n-butyl) thiophosphoric triamide], the “NBPT deterioration at elevated temperature” value in series [6] (solution of example 4: 50% PG, 25% DMSO, 25% NBPT) is on record as “did not have significant deterioration”; in series [6] (solution of example 6: 35% PG, 40% DMSO, 25% NBPT), “did not have significant deterioration”; in series [6] (solution of example 8: 20% PG, 40% DMSO, 40% NBPT) it was “did not have significant deterioration”; in series [6] (solution of example 10: 48.5% glycerine, 1.5% methanol, 25% DMSO, 25% NBPT), “did not have significant deterioration”; in series [6] (solution of example 12: 33.5% glycerine, 1.5% methanol, 25% DMSO, 40% NBPT), “did not have significant deterioration”.
